Experimental findings from patent US20020077345A1, “Cis-substituted aminocycloalkylpyrrolidine derivatives” (priority 1997, published 2002) are described below.

Converted amounts (≈) assume the structure as drawn. Structures can show the parent of a compound that is named as a salt. Where two headings read alike, the source gives them in different places. Marks after values point to notes of the source that are not given here.

The test system of data set [1] is Str. pyogenes, G-36. Briefly: Antimicrobial activity (MIC), standard method of Japan Society of Chemotherapy. It is filed as cell-based. As to the method: (§1) To further illustrate the present invention in greater detail, and not by way of limitation, the following Examples will be given. The antimicrobial activity of each target compound was evaluated in accordance with the standard method specified by Japan Society of Chemotherapy and expressed in MIC (μg/ml).

The test system of data set [2] is E. coli, NIHJ. The description is as above. It is filed as cell-based. Here is the method:
as §1

Data set [3] concerns Ser. marcescens, 10100. The description is as above. It is filed as cell-based. As to the method:
as §1

In data set [4] the test system is S. aureus, 870307. The data set is described as above. It is filed as cell-based. Here is the method:
as §1

The subject of data set [5] is Str. faecalis, ATCC-19433. The data set is described as above. It is filed as cell-based. Here is the method:
as §1

Data set [6] relates to S. epidermidis, 56500. The description is as above. It is filed as cell-based. As to the method:
as §1

The subject of data set [7] is S. aureus, 209P. The description is as above. It is filed as cell-based. As to the method: as §1
In data set [8] the test system is X. maltophilia, 11D-1275. The data set is described as above. It is filed as cell-based. As to the method: as §1
For data set [9], the system named is Pr. mirabilis, IFO-3849. The description is as above. It is filed as cell-based. Here is the method:
as §1

For data set [10], the system named is Pr. vulgaris, 08601. The data set is described as above. It is filed as cell-based. Here is the method: as §1
The test system of data set [11] is Ps. aeruginosa, 32121. The data set is described as above. It is filed as cell-based. As to the method:
as §1

Data set [12] relates to S. flexneli, 2A 5503. The data set is described as above. It is filed as cell-based. As to the method: as §1
Data set [13] has as its system Ps. aeruginosa, 32104. The description is as above. It is filed as cell-based. As to the method: as §1
The test system of data set [14] is Slc:ddy male mice. Briefly: Acute toxicity, intravenous administration to mice. It is filed as in vivo. The following applies: deaths/mice dosed. Here is the method: A solution of 5-amino-7-[4-(R)-(1-aminocyclopropyl)-3-(S)-fluoro-1-pyrrolidinyl]-6-fluoro-1-[2-(S)-fluoro-1-(R)-cyclopropyl]-1,4-dihydro-8-methyl-4-oxoquinoline-3-carboxylic acid (abbreviated as cis) hydrochloride (Example 2) or 5-amino-7-[4-(R)-(1-aminocyclopropyl)-3-(R)-fluoro-1-pyrrolidinyl]-6-fluoro-1-(2-(S)-fluoro-1-(R)-cyclopropyl]-1,4-dihydro-8-methyl-4-oxoquinoline-3-carboxylic acid (abbreviated as trans) hydrochloride in distilled water for injection was administered intravenously to Slc:ddy male mice (five mice per group) and the symptoms are observed. The results are as follows.

Setting [15] is: Streptococcus pyogenes, G36, read-out: MIC.
[16] abbreviates: Escherichia coli, read-out: MIC.
Setting [17] is: Serratia marcescens, read-out: MIC.
[18] abbreviates: Staphylococcus aureus, read-out: MIC.
Setting [19] is: Enterococcus faecalis, ATCC19433, read-out: MIC.
[20] abbreviates: Staphylococcus epidermidis, read-out: MIC.
[21] abbreviates: Stenotrophomonas maltophilia, 11D1275, read-out: MIC.
The mark [22] stands for this setting: Proteus mirabilis, IFO3849, read-out: MIC.
[23] abbreviates: Proteus vulgaris, read-out: MIC.
The mark [24] stands for this setting: Pseudomonas aeruginosa, read-out: MIC.
[25] abbreviates: 150 mg/kg intravenously, five per group.

In the case of `C[C@H]1COc2c(N3C[C@@H](F)[C@@H](C4(N)CC4)C3)c(F)cc3c(=O)c(C(=O)O)cn1c23.Cl` [Example 6, 10-[4-(R)-(1-Aminocyclopropyl)-3-(S)-fluoro-1-pyrrolidinyl]-9-fluoro-2,3-dihydro-3-(S)-methyl-7-oxo-7H-pyrido[1,2,3-de][1,4]benzoxazine-6-carboxylic acid hydrochloride], the MIC (usually the least concentration at which growth counts as inhibited) was 0.01 µg/mL in [1] (setting [15]); 0.01 µg/mL in [2] (setting [16]); 0.1 µg/mL in [3] (setting [17]); 0.2 µg/mL in data set [4] (setting [18]); 0.05 µg/mL in data set [5] (setting [19]); 0.025 µg/mL in data set [6] (setting [20]). Further, the MIC is 0.006 µg/mL in data set [7] (setting [18]); 0.39 µg/mL in data set [8] (setting [21]); 0.1 µg/mL in data set [9] (setting [22]); 0.025 µg/mL in data set [10] (setting [23]); 0.1 µg/mL in [11] (setting [24]); 0.01 µg/mL in data set [12]. Besides, the MIC in data set [13] (setting [24]) worked out at 0.39 µg/mL.
Turning to `Cc1c(N2C[C@H](F)[C@@H](C3(N)CC3)C2)c(F)c(N)c2c(=O)c(C(=O)O)cn([C@@H]3C[C@@H]3F)c12` [trans, 5-amino-7-[4-(R)-(1-aminocyclopropyl)-3-(R)-fluoro-1-pyrrolidinyl]-6-fluoro-1-(2-(S)-fluoro-1-(R)-cyclopropyl]-1,4-dihydro-8-methyl-4-oxoquinoline-3-carboxylic acid, reference compound], the Number of death in data set [14] (50 mg/kg intravenously, five per group) is recorded as 0/5; in data set [14] (100 mg/kg intravenously, test stopped at second death), 2/2*; in data set [14] (setting [25]) it was 2/2*.
Turning to `COc1c(N2C[C@@H](F)[C@@H](C3(N)CC3)C2)c(F)cc2c(=O)c(C(=O)O)cn([C@@H]3C[C@@H]3F)c12` [Example 5, 7-[4-(R)-(1-Aminocyclopropyl)-3-(S)-fluoro-1-pyrrolidinyl]-6-fluoro-1-[2-(S)-fluoro-1-(R)-cycloproyyl]-1,4-dihydro-8-methoxy-4-oxoquinoline-3-carboxylic acid], the MIC is 0.006 µg/mL (≈ 0.0137 µM) in data set [1]; “≦0.003 μg/ml” in data set [2]; 0.10 µg/mL (≈ 0.229 µM) in data set [3]; 0.025 µg/mL (≈ 0.0572 µM) in data set [4]; 0.025 µg/mL (≈ 0.0572 µM) in data set [5]; 0.013 µg/mL (≈ 0.0297 µM) in data set [6]. The MIC result was “≦0.003 μg/ml” in [7]; 0.20 µg/mL (≈ 0.457 µM) in data set [8]; 0.05 µg/mL (≈ 0.114 µM) in [9]; 0.006 µg/mL (≈ 0.0137 µM) in data set [10]; 0.10 µg/mL (≈ 0.229 µM) in data set [11]; 0.006 µg/mL (≈ 0.0137 µM) in [12] (S. flexneli, 2A 5503). Further, the MIC in [13] was found to be 0.20 µg/mL (≈ 0.457 µM). Further, the Number of death result in data set [14] (setting [25]) is “same result”.
With `COc1c(N2C[C@@H](F)[C@@H](C3(N)CC3)C2)c(F)c(N)c2c(=O)c(C(=O)O)cn([C@@H]3C[C@@H]3F)c12` [Example 3], the MIC in data set [1] (setting [15]) turned out to be 0.013 µg/mL (≈ 0.0287 µM); in data set [2] (setting [16]), 0.006 µg/mL (≈ 0.0133 µM); in [3] (setting [17]), 0.2 µg/mL (≈ 0.442 µM); in data set [4] (setting [18]), 0.025 µg/mL (≈ 0.0553 µM); in data set [5] (setting [19]), 0.05 µg/mL (≈ 0.111 µM); in data set [6] (setting [20]), 0.006 µg/mL (≈ 0.0133 µM). The minimum inhibitory concentration (MIC) was no more than 0.003 µg/mL in [7] (setting [18]); 0.2 µg/mL (≈ 0.442 µM) in data set [8] (setting [21]); 0.1 µg/mL (≈ 0.221 µM) in data set [9] (setting [22]); 0.05 µg/mL (≈ 0.111 µM) in data set [10] (setting [23]); 0.2 µg/mL (≈ 0.442 µM) in [11] (setting [24]); 0.006 µg/mL (≈ 0.0133 µM) in data set [12]. Besides, the minimum inhibitory concentration (MIC) in data set [13] (setting [24]) turned out to be 0.39 µg/mL (≈ 0.862 µM). Also, in [14] (setting [25]), the Number of death entry is listed as “same result”.
On to `Cc1c(N2CC(F)[C@@H](C3(N)CCC3)C2)c(F)c(N)c2c(=O)c(C(=O)O)cn(C3CC3F)c12` (single isomer, unassigned; isomer b) [Example 9], for which the Number of death result in [14] (setting [25]) was “same result”.
With `C[C@H]1COc2c(N3C[C@@H](F)[C@@H](C4(N)CC4)C3)c(F)cc3c(=O)c(C(=O)O)cn1c23` [Example 4, 10-[4-(R)-(1-Aminocyclopropyl)-3-(S)-fluoro-1-pyrrolidinyl]-9-fluoro-2,3-dihydro-3-(S)-methyl-7-oxo-7H-pyrido[1,2,3-de][1,4]benzoxazine-6-carboxylic acid], the Number of death entry in data set [14] (setting [25]) is recorded as “same result”.
The same measure, in the same setting: with `Cc1c(N2CC(CO)C(C3(N)CC3)C2)c(F)c(N)c2c(=O)c(C(=O)O)cn(C3CC3)c12` (stereo not drawn) [Example 1, 5-Amino-7-[cis-4-(1-aminocycloproiyl)-3-hydroxymethyl-1-pyrrolidinyl]-1-cyclopropyl-6-fluoro-1,4-dihydro-8-methyl-4-oxoquinoline-3-carboxylic acid] the entry was “same result”.
Consider `C[C@H]1COc2c(N3C[C@@H](F)[C@@H](C4(N)CC4)C3)c(F)c(N)c3c(=O)c(C(=O)O)cn1c23` [Example 8, 8-Amino-10-[4-(R)-(1-aminocyclopropyl)-3-(S)-fluoro-1-pyrrolidinyl]-9-fluoro-2,3-dihydro-3-(S)-methyl-7-oxo-7H-pyrido[1,2,3-de][1,4]benzoxazine-6-carboxylic acid], for which the MIC in [1] (setting [15]) amounted to 0.025 µg/mL (≈ 0.0595 µM); in [2] (setting [16]) it was 0.006 µg/mL (≈ 0.0143 µM); in data set [3] (setting [17]), 0.2 µg/mL (≈ 0.476 µM); in data set [4] (setting [18]), 0.2 µg/mL (≈ 0.476 µM); in data set [5] (setting [19]), 0.05 µg/mL (≈ 0.119 µM); in [6] (setting [20]), 0.013 µg/mL (≈ 0.0309 µM). Also, the MIC came out at 0.006 µg/mL (≈ 0.0143 µM) in data set [7] (setting [18]); 0.39 µg/mL (≈ 0.928 µM) in data set [8] (setting [21]); 0.1 µg/mL (≈ 0.238 µM) in data set [9] (setting [22]); 0.1 µg/mL (≈ 0.238 µM) in data set [10] (setting [23]); 0.2 µg/mL (≈ 0.476 µM) in data set [11] (setting [24]); 0.013 µg/mL (≈ 0.0309 µM) in [12]. Besides, the MIC in [13] (setting [24]) was 0.39 µg/mL (≈ 0.928 µM). Besides, the Number of death result in [14] (setting [25]) is given as “same result”.
As for `Cc1c(N2C[C@@H](F)[C@@H](C3(N)CC3)C2)c(F)c(N)c2c(=O)c(C(=O)O)cn([C@@H]3C[C@@H]3F)c12` [Example 2, 5-Amino-7-[4-(R)-(1-aminocyclopropyl)-3-(S)-fluoro-1-pyrrolidinyl]-6-fluoro-1-[2-(S)-fluoro-1-(R)-cyclopropyl1-1,4-dihydro-8-methyl-4-oxoquinoline-3-carboxylic acid hydrochloride], the MIC is no more than 0.003 µg/mL in data set [1] (setting [15]); no more than 0.003 µg/mL in data set [2] (setting [16]); 0.05 µg/mL in data set [3] (setting [17]); 0.025 µg/mL in [4] (setting [18]); 0.025 µg/mL in [5] (setting [19]); no more than 0.003 µg/mL in data set [6] (setting [20]). In addition, the MIC is no more than 0.003 µg/mL in data set [7] (setting [18]); 0.05 µg/mL in data set [8] (setting [21]); 0.025 µg/mL in data set [9] (setting [22]); 0.013 µg/mL in [10] (setting [23]); 0.05 µg/mL in data set [11] (setting [24]); no more than 0.003 µg/mL in data set [12]. Moreover, the MIC in data set [13] (setting [24]) came to 0.1 µg/mL. Further, in data set [14] (setting [25]), the Number of death is 0/5.
